Consider 25 molecules from patent US7462617B2, “Substituted acylpiperazine derivatives” (Hoffmann-La Roche Inc., priority 2003, dated 2008).

What is called melting point is the temperature of the solid-liquid transition. As a reminder, the IC50 is the midpoint of a concentration-inhibition curve.

Data set [1] addresses T1, mGlyT-1b (Mus musculus, UniProt P28571).
T1 construct: host or cells: Flp-in-CHO
T1 sequence (P28571 1-651 isoform P28571-2): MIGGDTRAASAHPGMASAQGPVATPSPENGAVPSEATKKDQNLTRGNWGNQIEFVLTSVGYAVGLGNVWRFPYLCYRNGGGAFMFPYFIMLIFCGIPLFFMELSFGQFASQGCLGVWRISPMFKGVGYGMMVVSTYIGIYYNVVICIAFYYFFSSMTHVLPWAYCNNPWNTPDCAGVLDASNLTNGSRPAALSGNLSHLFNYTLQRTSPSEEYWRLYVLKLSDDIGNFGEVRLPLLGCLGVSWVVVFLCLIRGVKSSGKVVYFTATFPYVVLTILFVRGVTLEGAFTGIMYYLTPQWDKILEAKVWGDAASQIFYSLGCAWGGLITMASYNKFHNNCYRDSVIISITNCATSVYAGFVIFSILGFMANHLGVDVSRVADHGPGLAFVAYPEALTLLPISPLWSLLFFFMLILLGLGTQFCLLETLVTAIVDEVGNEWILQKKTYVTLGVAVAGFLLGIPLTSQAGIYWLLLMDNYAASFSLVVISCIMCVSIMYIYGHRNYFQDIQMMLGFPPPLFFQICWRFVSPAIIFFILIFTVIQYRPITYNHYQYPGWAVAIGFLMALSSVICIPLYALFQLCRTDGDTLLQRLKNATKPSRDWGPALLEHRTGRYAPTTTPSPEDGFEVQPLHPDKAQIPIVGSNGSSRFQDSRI
In words: Glycine Uptake Inhibition Assay (mGlyT-1b). In kind it is cell-based. Particulars: [3H]-glycine uptake in Flp-in-CHO cells stably transfected with mGlyT1b cDNA; 20 min preincubation at 22° C.; read-out: IC50 (μM) at GlyT-1. The procedure:
DMEM complete medium: Nutrient mixture F-12 (Gibco Life-technologies), fetal bovine serum (FBS) 5%, (Gibco life technologies), Penicillin/Streptomycin 1% (Gibco life technologies), Hygromycin 0.6 mg/ml (Gibco life technologies), Glutamine 1 mM Gibco life technologies)
Uptake buffer (UB): 150 mM NaCl, 10 mM Hepes-Tris, pH 7.4, 1 mM CaCl2, 2.5 mM KCl, 2.5 mM MgSO4, 10 mM (+) D-glucose. Flp-in™-CHO (Invitrogen Cat n^o R758-07)cells stably transfected with mGlyT1b cDNA.
Glycine Uptake Inhibition Assay (mGlyT-1b)
On day 1 mammalian cells, (Flp-in™-CHO), transfected with mGlyT-1b cDNA, were plated at the density of 40,000 cells/well in complete F-12 medium, without hygromycin in 96-well culture plates. On day 2 ,the medium was aspirated, and the cells were washed twice with uptake buffer (UB). The cells were then incubated for 20 min at 22° C. with either (i) no potential competitor, (ii) 10 mM non-radioactive glycine, (iii) a concentration of a potential inhibitor. A range of concentrations of the potential inhibitor was used to generate data for calculating the concentration of inhibitor resulting in 50% of the effect (e.g. IC50, the concentration of the competitor inhibiting glycine uptake of 50%). A solution was then immediately added containing [^3H]-glycine 60 nM (11-16 Ci/mmol) and 25 μM non-radioactive glycine. The plates were incubated with gentle shaking, and the reaction was stopped by aspiration of the mixture and washing (three times) with ice-cold UB. The cells were lysed with scintillation liquid, shaken 3 hours, and the radioactivity in the cells was counted using a scintillation counter.

`CC(=O)c1ccc(N2CCN(C(=O)c3c(Cl)ccc([N+](=O)[O-])c3Cl)CC2)c(F)c1` [Example 12, 1-{4-[4-(2,6-Dichloro-3-nitro-benzoyl)-piperazin-1-yl]-3-fluoro-phenyl}-ethanone] registered a melting point of 209 to 211 °C.
With `CC(=O)c1ccc(N2CCN(C(=O)c3cc([N+](=O)[O-])ccc3-c3ccccc3)CC2)c(F)c1` [Example 15, 1-{3-Fluoro-4-[4-(4-nitro-biphenyl-2-carbonyl)-piperazin-1-yl]-phenyl}-ethanone], the IC50 in data set [1] was found to be 0.023 µM.
Take `CC(=O)c1ccc(N2CCN(C(=O)c3cc([N+](=O)[O-])ccc3C3CC3)CC2)c(F)c1` [Example 16, 1-{4-[4-(2-Cyclopropyl-5-nitro-benzoyl)-piperazin-1-yl]-3-fluoro-phenyl}-ethanone]: the concentration for half-maximal inhibition (IC50) in data set [1] was 0.026 µM.
The molecule `COC(=O)c1ccc([N+](=O)[O-])cc1C(=O)N1CCN(c2ccc(C(C)=O)cc2F)CC1` [Example 43, 2-[4-(4-Acetyl-2-fluoro-phenyl)-piperazine-1-carbonyl]-4-nitro-benzoic acid methyl ester] came in with a melting point of 189 to 191 °C. In addition, the IC50 in data set [1] was found to be 0.032 µM.
Consider `CS(=O)(=O)c1ccc(-c2cccs2)c(C(=O)N2CCN(c3ccc(C(F)(F)F)cc3)CC2)c1` [Example 52, (5-Methanesulfonyl-2-thiophen-2-yl-phenyl)-[4-(4-trifluoromethyl-phenyl)-piperazin-1-yl]-methanone], for which the IC50 in data set [1] stood at 0.033 µM.
Take `CS(=O)(=O)c1ccc(-c2ccsc2)c(C(=O)N2CCN(c3ccc(C(F)(F)F)cc3)CC2)c1` [Example 53, (5-Methanesulfonyl-2-thiophen-3-yl-phenyl)-[4-(4-trifluoromethyl-phenyl)-piperazin-1-yl]-methanone]: the IC50 in data set [1] was determined as 0.006 µM.
On the same count and under the same terms, under `Cc1ccc(-c2ccc(S(C)(=O)=O)cc2C(=O)N2CCN(c3ccc(C(F)(F)F)cc3)CC2)s1` [Example 55, [5-Methanesulfonyl-2-(5-methyl-thiophen-2-yl)-phenyl]-[4-(4-trifluoromethyl-phenyl)-piperazin-1-yl]-methanone] stands 0.039 µM.
In the case of `CS(=O)(=O)c1ccc(-c2ccncc2)c(C(=O)N2CCN(c3ccc(C(F)(F)F)cc3)CC2)c1` [Example 59, (5-Methanesulfonyl-2-pyridin-4-yl-phenyl)-[4-(4-trifluoromethyl-phenyl)-piperazin-1-yl]-methanone], the IC50 in data set [1] was determined as 0.033 µM.
On to `CS(=O)(=O)c1ccc(C2=CCOCC2)c(C(=O)N2CCN(c3ccc(C(F)(F)F)cc3)CC2)c1` [Example 60, [2-(3,6-Dihydro-2H-pyran-4-yl)-5-methanesulfonyl-phenyl]-[4-(4-trifluoromethyl-phenyl)-piperazin-1-yl]-methanone], for which the IC50 in data set [1] stood at 0.019 µM.
The same measure, in the same setting: under `CS(=O)(=O)c1ccc(-c2ccccc2)c(C(=O)N2CCN(c3ccc(C(F)(F)F)cc3F)CC2)c1` [Example 62, [4-(2-Fluoro-4-trifluoromethyl-phenyl)-piperazin-1-yl]-(4-methanesulfonyl-biphenyl-2-yl)-methanone] stands 0.019 µM; under `CS(=O)(=O)c1ccc(-c2ccc(F)cc2)c(C(=O)N2CCN(c3ccc(C(F)(F)F)cc3F)CC2)c1` [Example 63, (4′-Fluoro-4-methanesulfonyl-biphenyl-2-yl)-[4-(2-fluoro-4-trifluoromethyl-phenyl)-piperazin-1-yl]-methanone], 0.01 µM; under `CC(=O)c1ccc(N2CCN(C(=O)c3cc(S(C)(=O)=O)ccc3C3=CCCCC3)CC2)c(F)c1` [Example 68, 1-{4-[4-(2-Cyclohex-1-enyl-5-methanesulfonyl-benzoyl)-piperazin-1-yl]-3-fluoro-phenyl}-ethanone], 0.007 µM.
Take `CCc1ccc(N2CCN(C(=O)c3cc(S(C)(=O)=O)ccc3C3CCCCC3)CC2)c(F)c1` [Example 69, (2-Cyclohexyl-5-methanesulfonyl-phenyl)-[4-(4-ethyl-2-fluoro-phenyl)-piperazin-1-yl]-methanone]: in data set [1], the IC50 turned out to be 0.031 µM.
As to `CC(=O)c1ccc(N2CCN(C(=O)c3cc(S(C)(=O)=O)ccc3C3=CCCC3)CC2)c(F)c1` [Example 71, 1-{4-[4-(2-Cyclopent-1-enyl-5-methanesulfonyl-benzoyl)-piperazin-1-yl]-3-fluoro-phenyl}-ethanone], the IC50 in data set [1] is 0.013 µM.
With `CC(=O)c1ccc(N2CCN(C(=O)c3cc(S(C)(=O)=O)ccc3C3=CCOCC3)CC2)c(F)c1` [Example 72, 1-(4-{4-[2-(3,6-Dihydro-2H-pyran-4-yl)-5-methanesulfonyl-benzoyl]-piperazin-1-yl}-3-fluoro-phenyl)-ethanone], the IC50 in data set [1] amounted to 0.021 µM.
For the molecule `CC(=O)c1ccc(N2CCN(C(=O)c3cc(S(C)(=O)=O)ccc3C3=CCCCCC3)CC2)c(F)c1` [Example 73, 1-{4-[4-(2-Cyclohept-1-enyl-5-methanesulfonyl-benzoyl)-piperazin-1-yl]-3-fluoro-phenyl}-ethanone], the concentration for half-maximal inhibition (IC50) in data set [1] is 0.013 µM.
Take `CS(=O)(=O)c1ccc(C2=CCCCCC2)c(C(=O)N2CCN(c3ccc(C(F)(F)F)cc3)CC2)c1` [Example 75, (2-Cyclohept-1-enyl-5-methanesulfonyl-phenyl)-[4-(4-trifluoromethyl-phenyl)-piperazin-1-yl]-methanone]: the concentration for half-maximal inhibition (IC50) in data set [1] came to 0.014 µM.
As for `CNS(=O)(=O)c1ccc(-c2ccccc2)c(C(=O)N2CCN(c3ccc(C(F)(F)F)cc3)CC2)c1` [Example 76, 2-[4-(4-Trifluoromethyl-phenyl)-piperazine-1-carbonyl]-biphenyl-4-sulfonic acid methylamide], the IC50 in data set [1] came to 0.012 µM.
As to `CS(=O)(=O)c1ccc(C2=CCCCC2)c(C(=O)N2CCN(c3ccc(C(F)(F)F)cc3)CC2)c1` [Example 77, (2-Cyclohex-1-enyl-5-methanesulfonyl-phenyl)-[4-(4-trifluoromethyl-phenyl)-piperazin-1-yl]-methanone], in data set [1], the half-inhibitory concentration (IC50) amounted to 0.011 µM.
`CS(=O)(=O)c1ccc(C2CCCC2)c(C(=O)N2CCN(c3ccc(C(F)(F)F)cc3)CC2)c1` [Example 79, (2-Cyclopentyl-5-methanesulfonyl-phenyl)-[4-(4-trifluoromethyl-phenyl)-piperazin-1-yl]-methanone]: the IC50 in data set [1] was 0.008 µM.
Regarding `CS(=O)(=O)c1ccc(C2=CCOCC2)c(C(=O)N2CCN(c3ccc(C(F)(F)F)cc3F)CC2)c1` [Example 91, [2-(3,6-Dihydro-2H-pyran-4-yl)-5-methanesulfonyl-phenyl]-[4-(2-fluoro-4-trifluoromethyl-phenyl)-piperazin-1-yl]-methanone], in data set [1], the IC50 came to 0.022 µM.
For `CS(=O)(=O)c1ccc(-c2ccccc2F)c(C(=O)N2CCN(c3ncc(C(F)(F)F)cc3Cl)CC2)c1` [Example 111, [4-(3-Chloro-5-trifluoromethyl-pyridin-2-yl)-piperazin-1-yl]-(2′-fluoro-4-methanesulfonyl-biphenyl-2-yl)-methanone], the 50% inhibitory concentration (IC50) in data set [1] stood at 0.038 µM.
On to `CS(=O)(=O)c1ccc(-c2ccccc2)c(C(=O)N2CCN(c3ncc(C(F)(F)F)cc3Cl)CC2)c1` [Example 114, [4-(3-Chloro-5-trifluoromethyl-pyridin-2-yl)-piperazin-1-yl]-(4-methanesulfonyl-biphenyl-2-yl)-methanone], for which, in data set [1], the IC50 was 0.035 µM.
Still for that read-out and setting: under `CS(=O)(=O)c1ccc(-c2ccccc2F)c(C(=O)N2CCN(c3ccc(C#N)cc3F)CC2)c1` [Example 126, 3-Fluoro-4-[4-(2′-fluoro-4-methane-sulfonyl-biphenyl-2-carbonyl)-piperazin-1-yl]-benzonitrile] stands 0.039 µM.
As for `CC(=O)c1ccc(N2CCN(C(=O)c3cc(S(C)(=O)=O)ccc3-c3ccsc3)CC2)cc1` [Example 127, 1-{4-[4-(5-Methanesulfonyl-2-thiophen-3-yl-benzoyl)-piperazin-1-yl]-phenyl}-ethanone], the half-maximal inhibitory concentration (IC50) in data set [1] was determined as 0.036 µM.
